The source of these data is patent publication US9120820B2, “Fluorescent molecular probes for use in assays that measure test compound competitive binding with SAM-utilizing proteins” (CAYMAN CHEMICAL COMPANY, INCORPORATED, priority 2011, dated 2015).

Structures are written as SMILES. Some results are limits rather than exact numbers.

The target of one assay is T1, NSD2 (Homo sapiens, UniProt O96028).
T1 construct: purchased Cayman 10758
T1 sequence (O96028 1-1365): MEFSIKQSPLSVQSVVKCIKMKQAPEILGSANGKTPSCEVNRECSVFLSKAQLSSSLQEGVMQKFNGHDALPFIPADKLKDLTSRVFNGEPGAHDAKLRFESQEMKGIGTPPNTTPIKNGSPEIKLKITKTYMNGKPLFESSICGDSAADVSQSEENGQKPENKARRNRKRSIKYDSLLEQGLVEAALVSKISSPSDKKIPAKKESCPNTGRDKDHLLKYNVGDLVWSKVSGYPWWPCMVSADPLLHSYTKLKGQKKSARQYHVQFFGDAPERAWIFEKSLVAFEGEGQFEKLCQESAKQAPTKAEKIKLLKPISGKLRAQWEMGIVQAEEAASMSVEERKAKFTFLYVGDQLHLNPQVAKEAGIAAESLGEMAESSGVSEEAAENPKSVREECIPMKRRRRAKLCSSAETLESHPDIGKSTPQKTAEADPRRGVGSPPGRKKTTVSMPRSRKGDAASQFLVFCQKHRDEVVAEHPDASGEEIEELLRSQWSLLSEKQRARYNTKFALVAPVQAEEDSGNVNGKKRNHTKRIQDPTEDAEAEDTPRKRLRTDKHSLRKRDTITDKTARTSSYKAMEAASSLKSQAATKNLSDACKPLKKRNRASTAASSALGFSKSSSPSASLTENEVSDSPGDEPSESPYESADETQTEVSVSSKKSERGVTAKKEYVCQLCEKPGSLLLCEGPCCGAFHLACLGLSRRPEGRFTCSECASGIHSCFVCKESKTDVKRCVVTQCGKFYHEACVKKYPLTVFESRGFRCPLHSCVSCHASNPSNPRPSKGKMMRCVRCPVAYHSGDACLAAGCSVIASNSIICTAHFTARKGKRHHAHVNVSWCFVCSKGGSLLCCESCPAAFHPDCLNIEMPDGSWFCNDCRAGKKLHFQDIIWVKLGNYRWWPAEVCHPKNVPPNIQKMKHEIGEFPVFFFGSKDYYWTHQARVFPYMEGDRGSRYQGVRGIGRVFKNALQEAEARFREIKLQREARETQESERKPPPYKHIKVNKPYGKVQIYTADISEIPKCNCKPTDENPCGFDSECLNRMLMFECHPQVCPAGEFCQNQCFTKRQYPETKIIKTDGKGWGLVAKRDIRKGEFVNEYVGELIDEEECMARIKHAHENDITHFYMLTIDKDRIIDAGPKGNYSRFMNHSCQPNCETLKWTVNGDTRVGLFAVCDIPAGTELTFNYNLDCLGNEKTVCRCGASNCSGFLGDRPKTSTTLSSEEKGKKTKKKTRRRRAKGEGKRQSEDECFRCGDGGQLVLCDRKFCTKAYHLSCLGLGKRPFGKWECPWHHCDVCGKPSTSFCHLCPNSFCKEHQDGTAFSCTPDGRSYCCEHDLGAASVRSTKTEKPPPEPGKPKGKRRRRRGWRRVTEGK
The assay can be described thus: Fluorescence polarization saturation binding of fluorescent probe to NSD2. How it is done: (§1) Methods: The experiment was performed once, with two replicate wells for all methyltransferases per condition. The sole exception to this is NSD2 (see details below). The assay was performed in a ½ area, black, 96-well plate (Corning #3686) in a final volume of 30 μL. Methyltransferases (Table 1) were serially diluted two-fold in FP buffer (Cayman Catalog #600028) and 15 μL of a given dilution were added per well to the assay plate. Fifteen microliters of sinefungin probe 1A (10 nM) were added to each well, giving a final sinefungin probe 1A concentration of 5 nM. This concentration of sinefungin probe 1A was chosen because it had at least a 10-fold increase in fluorescence (excitation max 575 nm/emission max 615 nm) over background (buffer). The mixture was incubated in the dark at room temperature for 30 minutes and its fluorescence polarization was read using a BioTek Synergy 4.
For NSD2, the assay was performed essentially as above, but with the following changes. The assay was performed in a 20 μL total volume (10 μL NSD2/10 μL sinefungin probe 1) in low-volume, black, 384-well plates (Nunc #264705). The concentrations of sinefungin probe 1A and methyltransferase were identical to that of the 96-well format. The assay was performed once with three replicate wells per condition.
In general terms: Fluorescence polarisation rises when a labelled molecule tumbles more slowly, as on binding a larger partner.

The next assay deals with MLL. Kind of assay: High-throughput FP Sinefungin Probe 1A binding assay adapted for MLL. The following applies: MLL 1 μM, FIG. 10. The procedure:
Adaptation for GLP and MLL: Assays for probe binding to two other methyltransferases (GLP and MLL) were also adapted to high throughput format. The assay conditions were identical to the SET7/9 assay, however the protein concentration was increased to raise the signal:noise ratio for the assay. For GLP, the protein concentration was raised to 500 nM, while the concentration of MLL was raised to 1 μM. Data were analyzed in GraphPad Prism (v. 5.04) and/or GeneData (v. 9.01).
This assay was also adapted for high throughput format against the methyltransferase MLL (Cayman Catalog Item #10658). Relevant data are illustrated in FIG. 10: The fluorescence polarization (FP) Sinefungin Probe 1A binding assay was adapted to a high-throughput inhibitor screening format for both A) MLL and B) SET7/9. The probe polarization is increased by >120 mp by binding to SET7/9 (30 nM) and by >145 mp by binding to MLL (1 μM). […] Sixty-four replicates were tested for each condition for SET7/9, sixteen replicates were tested for MLL. Z′ factor scores were >0.5 for all conditions tested (SET7/9:sinefungin: 0.71; SAM: 0.72; no SET7/9: 0.69; MLL:sinefungin: 0.72).

For another assay, the target named is T2, SET8 (Homo sapiens, UniProt Q9NQR1).
T2 construct: purchased Cayman 10319
T2 sequence (Q9NQR1 1-393): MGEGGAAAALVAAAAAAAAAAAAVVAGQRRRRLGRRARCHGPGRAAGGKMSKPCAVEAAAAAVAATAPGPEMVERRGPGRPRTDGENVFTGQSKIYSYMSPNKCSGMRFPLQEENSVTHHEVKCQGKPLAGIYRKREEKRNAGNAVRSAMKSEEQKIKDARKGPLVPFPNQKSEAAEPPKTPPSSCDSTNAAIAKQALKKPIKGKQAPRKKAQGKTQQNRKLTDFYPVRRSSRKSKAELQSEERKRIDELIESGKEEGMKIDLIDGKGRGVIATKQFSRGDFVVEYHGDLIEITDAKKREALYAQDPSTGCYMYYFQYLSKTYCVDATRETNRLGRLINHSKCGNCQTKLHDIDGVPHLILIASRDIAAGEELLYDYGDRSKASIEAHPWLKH
The assay can be described thus: Fluorescence polarization saturation binding of fluorescent probe to SET8. How it is done:
as §1

Another assay concerns the target DNMT3b (Homo sapiens, UniProt Q9UBC3). The assay can be described thus: Fluorescence polarization saturation binding of fluorescent probe to DNMT3b. The following applies: saturation-binding format, read-out: Sinefungin Probe 1A Affinity. How it is done: Sinefungin Probe 1A was tested for the ability to bind to 16 proteins, including several non-methlytransferase protein controls (Table 2). This probe binds to 4 methyltransferases (SET7/9, G9a, GLP, MLL) with Kd values <2 μM.

On to `Nc1ncnc2c1ncn2[C@@H]1O[C@H](C[C@@H](N)CC[C@H](N)C(=O)O)[C@@H](OCc2cnnn2CCCCCCNC(=O)OC2CCN(C(=O)c3ccccc3C3=c4cc5c6c(c4Oc4c3cc3c7c4CCCN7CCC3)CCC[N+]=6CCC5)CC2)[C@H]1O` [Sinefungin Probe 1A], for which the “measurable affinity for the probe” value is “only SET7/9 and G9a displayed measurable affinity” at NSD2 (Example 8, NSD2, 5 nM probe, 384-well, FIG. 2); “only SET7/9 and G9a displayed measurable affinity” on SET8 (Example 8, SET8, 5 nM probe, FIG. 2). Further, the Kd at NSD2 (NSD2, saturation-binding format, read-out: Sinefungin Probe 1A Affinity) was > 2 µM; on SET8 (SET8, saturation-binding format, read-out: Sinefungin Probe 1A Affinity), > 2 µM; on DNMT3b, > 2 µM. In addition, the “increase of probe polarization by binding” value in the assay with MLL is given as > 145 mp.
